Experimental data as given in ChEMBL document CHEMBL5608234, “Heat Shock Protein 90 Interactome-Mediated Proteolysis Targeting Chimera (HIM-PROTAC) Degrading Glutathione Peroxidase 4 to Trigger Ferroptosis” (J Med Chem, 2024).
The source made the active and inactive calls. The calls are words filed in the database; no cut-off is given here.

Assays:
HT-1080 [1] = test: HIM-PROTAC activity at GPX4/HSP90/E3 ligase in human HT-1080 cells assessed as reduction in GPX4 level at 0.1 to 3 uM incubated for 24 hrs by Western blotting analysis; assay type: cell-based; conditions: dose 0.1-3 µM
HT-1080 [2] = test: HIM-PROTAC activity at GPX4/HSP90/E3 ligase in human HT-1080 cells assessed as reduction in GPX4 level incubated for 24 hrs by Western blotting analysis; assay type: cell-based
4T1 = test: HIM-PROTAC activity at GPX4/HSP90/E3 ligase in […] cells assessed as reduction in GPX4 level at 0.1 to 3 uM incubated for 24 hrs by Western blotting analysis; assay type: cell-based; conditions: dose 0.1-3 µM
HT-1080 [3] = test: HIM-PROTAC activity at GPX4/HSP90/E3 ligase in human HT-1080 cells assessed as downregulation of GPX4 mRNA level at 0.1 to 1 uM incubated for 24 hrs by qRT-PCR analysis; assay type: cell-based; conditions: dose 0.1-1 µM
HT-1080 [4] = test: HIM-PROTAC activity at GPX4/HSP90/E3 ligase in human HT-1080 cells assessed as GPX4 degradation at 1 uM measured 12 hrs post compound washout by Western blotting analysis; assay type: cell-based
HT-1080 [5] = test: Upregulation of HMOX1 protein level in human HT-1080 cells at 1 uM incubated for 24 hrs by proteomics analysis; assay type: functional, cell-based
HT-1080 [6] = test: Induction of ferroptosis in human HT-1080 cells assessed as increase in HMOX1 protein level after 24 hrs by Western blotting analysis; assay type: functional, cell-based; conditions: dose 0.1-3 µM
HT-1080 [7] = test: HIM-PROTAC activity at GPX4/HSP90/E3 ligase in human HT-1080 cells assessed as reduction in GPX4 level at 1 uM preincubated with 6-chloro-9-((4-methoxy-3,5-dimethylpyridin-2-yl)methyl)-9H-purin-2-amine for 2 hrs followed by compound addition and measured after 24 hrs by Western blotting analysis; assay type: cell-based
HT-1080 [8] = test: HIM-PROTAC activity at GPX4/HSP90/E3 ligase in HSP90-knockdown human HT-1080 cells assessed as GPX4 degradation at 1 uM preincubated with KW-2478 for 3 hrs followed by compound addition and measured after 24 hrs by Western blotting analysis; assay type: cell-based
HT-1080 [9] = test: HIM-PROTAC activity at GPX4/HSP90/E3 ligase in HSP90-knockdown human HT-1080 cells assessed as GPX4 degradation at 1 uM preincubated with KUNB-31 for 3 hrs followed by compound addition and measured after 24 hrs by Western blotting analysis; assay type: cell-based
HT-1080 [10] = test: HIM-PROTAC activity at GPX4/HSP90/E3 ligase in HSP90-knockdown human HT-1080 cells assessed as GPX4 degradation at 1 uM preincubated with KW-2478 and KUNB-31 for 3 hrs followed by compound addition and measured after 24 hrs by Western blotting analysis; assay type: cell-based
[11] = molecular target: T1, Phospholipid hydroperoxide glutathione peroxidase GPX4 (Homo sapiens) (UniProt P36969); test: Induction of GPX4 ubiquitination in human HT-1080 cells at 1 uM incubated for 12 hrs by SDS-PAGE assay; assay type: cell-based; conditions: filed as activator
T1 sequence (whole entry): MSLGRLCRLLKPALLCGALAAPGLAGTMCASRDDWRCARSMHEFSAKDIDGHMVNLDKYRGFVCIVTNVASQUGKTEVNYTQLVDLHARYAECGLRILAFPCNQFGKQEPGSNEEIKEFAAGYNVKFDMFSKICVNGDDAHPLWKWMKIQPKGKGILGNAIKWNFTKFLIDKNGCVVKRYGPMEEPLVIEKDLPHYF

HT-1080 [12] = test: HIM-PROTAC activity at GPX4/HSP90/E3 ligase in human HT-1080 cells assessed as GPX4 degradation at 0.3 to 1 uM preincubated with MLN4924 for 2 hrs followed by compound addition and measured after 24 hrs by Western blotting analysis; assay type: cell-based; conditions: dose 0.3-1 µM
HT-1080 [13] = test: HIM-PROTAC activity at GPX4/HSP90/E3 ligase in CUL1-knockdown human HT-1080 cells assessed as GPX4 degradation at 0.3 to 1 uM incubated for 24 hrs by Western blotting analysis; assay type: cell-based; conditions: dose 0.3-1 µM
HT-1080 [14] = test: HIM-PROTAC activity at GPX4/HSP90/E3 ligase in CUL2-knockdown human HT-1080 cells assessed as GPX4 degradation at 0.3 to 1 uM incubated for 24 hrs by Western blotting analysis; assay type: cell-based; conditions: dose 0.3-1 µM
HT-1080 [15] = test: HIM-PROTAC activity at GPX4/HSP90/E3 ligase in CUL3-knockdown human HT-1080 cells assessed as GPX4 degradation at 0.3 to 1 uM incubated for 24 hrs by Western blotting analysis; assay type: cell-based; conditions: dose 0.3-1 µM
HT-1080 [16] = test: HIM-PROTAC activity at GPX4/HSP90/E3 ligase in LZTR1 knockdown human HT-1080 cells assessed as GPX4 degradation at 0.3 to 1 uM incubated for 24 hrs by Western blotting analysis; assay type: cell-based; conditions: dose 0.3-1 µM
HT-1080 [17] = test: HIM-PROTAC activity at GPX4/HSP90/E3 ligase in CHIP knockdown human HT-1080 cells assessed as GPX4 degradation at 1 uM incubated for 24 hrs by Western blotting analysis; assay type: cell-based
HT-1080 [18] = test: Induction of ferroptosis in human HT-1080 cells assessed as increase in ROS level at 1 uM incubated for 24 hrs by DCFH-DA staining based confocal laser scanning microscopic analysis; assay type: functional, cell-based
HT-1080 [19] = test: Induction of ferroptosis in human HT-1080 cells assessed as increase in Fe2+ level at 1 uM incubated for 24 hrs by FerroOrange staining based confocal laser scanning microscopic analysis; assay type: functional, cell-based
HT-1080 [20] = test: Induction of ferroptosis in human HT-1080 cells assessed as broken mitochondrial outer membrane at 1 uM incubated for 24 hrs by TEM analysis; assay type: functional, cell-based
[21] = Tmax in ICR mouse at 25 mg/kg, ip measured upto 24 hrs by LC-MS/MS analysis; assay type: ADME, organism-based; conditions: in vivo
[22] = MRT(infinity) in ICR mouse at 25 mg/kg, ip measured upto 24 hrs by LC-MS/MS analysis; assay type: ADME, organism-based; conditions: in vivo
[23] = AUC(0 to t) in ICR mouse at 25 mg/kg, ip measured upto 24 hrs by LC-MS/MS analysis; assay type: ADME, organism-based; conditions: in vivo
[24] = AUCinfinity in ICR mouse at 25 mg/kg, ip measured upto 24 hrs by LC-MS/MS analysis; assay type: ADME, organism-based; conditions: in vivo
[25] = Toxicity in BALB/c mouse xenografted with human HT-1080 cells assessed as change in spleen morphology at 25 to 50 mg/kg, ip administered once daily by H and E staining based assay; assay type: organism-based; conditions: in vivo, dose 25-50 mg/kg
HT-1080 [26] = test: HIM-PROTAC activity at GPX4/HSP90/E3 ligase in human HT-1080 cells assessed as downregulation of GPX4 mRNA level at 1 uM incubated for 24 hrs by qRT-PCR analysis; assay type: cell-based
[27] = Drug uptake in human HT-1080 cells at 5 uM incubated for 6 hrs by LC-MS analysis; assay type: ADME, cell-based; conditions: ht-1080, 6 h
HT-1080 [28] = test: HIM-PROTAC activity at GPX4/HSP90/E3 ligase in human HT-1080 cells assessed as GPX4 degradation at 1 uM measured 24 hrs post compound washout by Western blotting analysis; assay type: cell-based

Row | Structure (SMILES) | Activity (HT-1080 [1]) | Activity (4T1) | Activity (HT-1080 [5]) | Activity (HT-1080 [6]) | Activity (HT-1080 [7]) | Activity [11] | Activity (HT-1080 [18]) | Activity (HT-1080 [19]) | Activity (HT-1080 [20]) | Tmax [21] | MRT inf [22] | AUC(0-t) at 24 h [23] | AUC(0-inf) [24] | Activity [25] | further results
1 | COc1c(C)cnc(Cn2cnc3c(NCCC4CCN(C(=O)Cn5cc(COc6ccc(N(C(=O)CCl)C(C(=O)NCCc7ccccc7)c7cccs7)cc6Cl)nn5)CC4)nc(N)nc32)c1C (stereo not drawn) | Active | Active | Active | Dose-Dependent Effect | inactive | Active | Active | Active | Active | 2 h | 6.2 h | 0.334 µg·h/mL | 0.346 µg·h/mL | Non-Toxic | Activity (HT-1080 [2]): Dose-Dependent Effect; Activity (HT-1080 [3]): inactive; Activity (HT-1080 [4]): Active; Activity (HT-1080 [8]): inactive; Activity (HT-1080 [9]): inactive; Activity (HT-1080 [10]): inactive; Activity (HT-1080 [12]): inactive; Activity (HT-1080 [13]): Active; Activity (HT-1080 [14]): Active; Activity (HT-1080 [15]): Active; Activity (HT-1080 [16]): Active; Activity (HT-1080 [17]): inactive
2 | COc1c(C)cnc(Cn2cnc3c(NCCOCCOCCOCCn4cc(COc5ccc(N(C(=O)CCl)C(C(=O)NCCc6ccccc6)c6cccs6)cc5Cl)nn4)nc(N)nc32)c1C (stereo not drawn) | Active | Active | Active | Dose-Dependent Effect | inactive | Active | Active | Active | Active | 2 h | 8.2 h | 0.726 µg·h/mL | 1.03 µg·h/mL | Non-Toxic | Activity (HT-1080 [26]): Active; Drug uptake [27]: Active; Activity (HT-1080 [28]): Active
